Species: Rattus norvegicus
Experiment: DrugMatrix - Regimen: Daily Repeat
Format: toxicity, organism-based, Sprague-Dawley
Set-up: regimen Daily Repeat, gender Male, age 6-8 weeks
Conditions: in vivo, po, route oral GAVAGE, vehicle 100 % WATER; for ABSOLUTE BASOPHIL / ABSOLUTE EOSINOPHIL / ABSOLUTE LYMPHOCYTE / ABSOLUTE MONOCYTE / ABSOLUTE SEGMENTED NEUTROPHIL / BASOPHIL / EOSINOPHIL / ERYTHROCYTE COUNT / HEMATOCRIT / HEMOGLOBIN / LEUKOCYTE COUNT / LYMPHOCYTE / MEAN CORPUSCULAR HEMOGLOBIN / MEAN CORPUSCULAR HEMOGLOBIN CONCENTRATION / MEAN CORPUSCULAR VOLUME / MONOCYTE / NEUTROPHIL / NUCLEATED RED BLOOD CELLS / PLATELET COUNT: tissue Blood; for ALANINE AMINOTRANSFERASE / ALBUMIN / ALKALINE PHOSPHATASE / ASPARTATE AMINOTRANSFERASE / BLOOD UREA NITROGEN / CARBON DIOXIDE / CHLORIDE / CHOLESTEROL / CREATINE PHOSPHOKINASE / CREATININE / GLUCOSE / LACTATE DEHYDROGENASE / LIPASE / PHOSPHORUS / POTASSIUM / SODIUM / TOTAL BILIRUBIN / TOTAL PROTEIN / URIC ACID: tissue Plasma
[1] = 0 mg/kg, 72 h, dose level Control, time 3 day
[2] = 0 mg/kg, 120 h, dose level Control, time 5 day
[3] = 120 mg/kg, 72 h, dose level Low, time 3 day

Cc1onc(-c2ccccc2Cl)c1C(=O)N[C@@H]1C(=O)N2[C@@H]1SC(C)(C)[C@@H]2C(=O)O [CLOXACILLIN]
ABSOLUTE BASOPHIL [1]: 0 CELLS/uL
ABSOLUTE EOSINOPHIL [1]: 40 CELLS/uL
ABSOLUTE LYMPHOCYTE [1]: 13599.5 CELLS/uL
ABSOLUTE MONOCYTE [1]: 239.33 CELLS/uL
ABSOLUTE SEGMENTED NEUTROPHIL [1]: 1021.17 CELLS/uL
BASOPHIL [1]: 0%
EOSINOPHIL [1]: 0.33%
ERYTHROCYTE COUNT [1]: 5.71 x10E6/uL
HEMATOCRIT [1]: 36.35%
HEMOGLOBIN [1]: 14.05 G/DL
LEUKOCYTE COUNT [1]: 14.9 x10E3/uL
LYMPHOCYTE [1]: 91%
MEAN CORPUSCULAR HEMOGLOBIN [1]: 24.62 pg
MEAN CORPUSCULAR HEMOGLOBIN CONCENTRATION [1]: 38.65 G/DL
MEAN CORPUSCULAR VOLUME [1]: 63.7 fL
MONOCYTE [1]: 1.5%
NEUTROPHIL [1]: 7.17%
NUCLEATED RED BLOOD CELLS [1]: 0.33 /100WBC
PLATELET COUNT [1]: 1225.5 x10E3/uL
ALANINE AMINOTRANSFERASE [1]: 48.5 u/L
ALBUMIN [1]: 4.18 G/DL
ALKALINE PHOSPHATASE [1]: 390.83 u/L
ASPARTATE AMINOTRANSFERASE [1]: 89 u/L
BLOOD UREA NITROGEN [1]: 14.83 mg/dL
CARBON DIOXIDE [1]: 24.83 mmol/L
CHLORIDE [1]: 100.83 MEQ/L
CHOLESTEROL [1]: 72.5 mg/dL
CREATINE PHOSPHOKINASE [1]: 503 u/L
CREATININE [1]: 0.2 mg/dL
GLUCOSE [1]: 163 mg/dL
LACTATE DEHYDROGENASE [1]: 316.83 u/L
LIPASE [1]: 9.83 u/L
PHOSPHORUS [1]: 11.57 mg/dL
POTASSIUM [1]: 6.16 MEQ/L
SODIUM [1]: 142.62 MEQ/L
TOTAL BILIRUBIN [1]: 0.2 mg/dL
TOTAL PROTEIN [1]: 5.8 G/DL
URIC ACID [1]: 1.65 mg/dL
ABSOLUTE BASOPHIL [2]: 0 CELLS/uL
ABSOLUTE EOSINOPHIL [2]: 21 CELLS/uL
ABSOLUTE LYMPHOCYTE [2]: 14288.5 CELLS/uL
ABSOLUTE MONOCYTE [2]: 205.33 CELLS/uL
ABSOLUTE SEGMENTED NEUTROPHIL [2]: 968.5 CELLS/uL
BASOPHIL [2]: 0%
EOSINOPHIL [2]: 0.17%
ERYTHROCYTE COUNT [2]: 5.83 x10E6/uL
HEMATOCRIT [2]: 36.53%
HEMOGLOBIN [2]: 14.4 G/DL
LEUKOCYTE COUNT [2]: 15.48 x10E3/uL
LYMPHOCYTE [2]: 92%
MEAN CORPUSCULAR HEMOGLOBIN [2]: 24.72 pg
MEAN CORPUSCULAR HEMOGLOBIN CONCENTRATION [2]: 39.43 G/DL
MEAN CORPUSCULAR VOLUME [2]: 62.68 fL
MONOCYTE [2]: 1.33%
NEUTROPHIL [2]: 6.5%
NUCLEATED RED BLOOD CELLS [2]: 0.17 /100WBC
PLATELET COUNT [2]: 1280.5 x10E3/uL
ALANINE AMINOTRANSFERASE [2]: 50 u/L
ALBUMIN [2]: 4.28 G/DL
ALKALINE PHOSPHATASE [2]: 380.17 u/L
ASPARTATE AMINOTRANSFERASE [2]: 82.67 u/L
BLOOD UREA NITROGEN [2]: 15.33 mg/dL
CARBON DIOXIDE [2]: 27.17 mmol/L
CHLORIDE [2]: 100.33 MEQ/L
CHOLESTEROL [2]: 60.67 mg/dL
CREATINE PHOSPHOKINASE [2]: 441.5 u/L
CREATININE [2]: 0.16 mg/dL
GLUCOSE [2]: 146 mg/dL
LACTATE DEHYDROGENASE [2]: 189.33 u/L
LIPASE [2]: 9.17 u/L
PHOSPHORUS [2]: 11.67 mg/dL
POTASSIUM [2]: 6.86 MEQ/L
SODIUM [2]: 142.33 MEQ/L
TOTAL BILIRUBIN [2]: 0.2 mg/dL
TOTAL PROTEIN [2]: 6.12 G/DL
URIC ACID [2]: 1.82 mg/dL
ABSOLUTE BASOPHIL [3]: 0 CELLS/uL
ABSOLUTE EOSINOPHIL [3]: 0 CELLS/uL
ABSOLUTE LYMPHOCYTE [3]: 13421.33 CELLS/uL
ABSOLUTE MONOCYTE [3]: 92.33 CELLS/uL
ABSOLUTE SEGMENTED NEUTROPHIL [3]: 1186.33 CELLS/uL
BASOPHIL [3]: 0%
EOSINOPHIL [3]: 0%
ERYTHROCYTE COUNT [3]: 5.89 x10E6/uL
HEMATOCRIT [3]: 36%
HEMOGLOBIN [3]: 13.83 G/DL
LEUKOCYTE COUNT [3]: 14.7 x10E3/uL
LYMPHOCYTE [3]: 90.67%
MEAN CORPUSCULAR HEMOGLOBIN [3]: 23.47 pg
MEAN CORPUSCULAR HEMOGLOBIN CONCENTRATION [3]: 38.4 G/DL
MEAN CORPUSCULAR VOLUME [3]: 61.07 fL
MONOCYTE [3]: 0.67%
NEUTROPHIL [3]: 8.67%
NUCLEATED RED BLOOD CELLS [3]: 0 /100WBC
PLATELET COUNT [3]: 1271.67 x10E3/uL
ALANINE AMINOTRANSFERASE [3]: 68 u/L
ALBUMIN [3]: 4.1 G/DL
ALKALINE PHOSPHATASE [3]: 359 u/L
ASPARTATE AMINOTRANSFERASE [3]: 111 u/L
BLOOD UREA NITROGEN [3]: 15.33 mg/dL
CARBON DIOXIDE [3]: 23 mmol/L
CHLORIDE [3]: 103 MEQ/L
CHOLESTEROL [3]: 79.33 mg/dL
CREATINE PHOSPHOKINASE [3]: 603.33 u/L
CREATININE [3]: 0.17 mg/dL
GLUCOSE [3]: 150.33 mg/dL
LACTATE DEHYDROGENASE [3]: 726 u/L
LIPASE [3]: 9 u/L
PHOSPHORUS [3]: 13.1 mg/dL
POTASSIUM [3]: 6.07 MEQ/L
SODIUM [3]: 143.5 MEQ/L
TOTAL BILIRUBIN [3]: 0.17 mg/dL
TOTAL PROTEIN [3]: 5.77 G/DL
URIC ACID [3]: 1.8 mg/dL

Source: ChEMBL document CHEMBL3885881, “DrugMatrix”
